Measurements reported in the OligoGym collection.
“And” between values parts separate entries of the source, which are not always exact repeats. Identical values can stand only once. After the bases stand the sugars from the 5' end (letter, count) and the backbone: PS all phosphorothioate, else s phosphorothioate and o phosphodiester by linkage. Methylation of C is not given here. k = constrained ethyl (cEt); d = 2'-deoxy (DNA)

Target: MALAT1
Conditions: ASO, A431, 0.005 µM

## CCCCACGCCAACACAG (sugars k3 d10 k3, PS)
  target mRNA inhibition: 10%

## CCCCAGTTCAATACTT (sugars k3 d10 k3, PS)
  target mRNA inhibition: 25%

## CCCCAGTTGCCGCCAG (sugars k3 d10 k3, PS)
  target mRNA inhibition: -18%

## CCCCATTATATTAGAA (sugars k3 d10 k3, PS)
  target mRNA inhibition: -6%

## CCCCCAAGATTGCCCC (sugars k3 d10 k3, PS)
  target mRNA inhibition: 11%

## CCCCCCACGGCCCGCA (sugars k3 d10 k3, PS)
  target mRNA inhibition: 26%

## CCCCGTCCTGGAAACC (sugars k3 d10 k3, PS)
  target mRNA inhibition: 21%

## CCCGCACGGAAATTTT (sugars k3 d10 k3, PS)
  target mRNA inhibition: 17%

## CCCGGAACTTTTAAAA (sugars k3 d10 k3, PS)
  target mRNA inhibition: -7%

## CCCTAACATGCAATAC (sugars k3 d10 k3, PS)
  target mRNA inhibition: 14%

## CCCTCTAAGAGACATT (sugars k3 d10 k3, PS)
  target mRNA inhibition: 32%

## CCCTTCAAGCACCGCT (sugars k3 d10 k3, PS)
  target mRNA inhibition: 28%

## CCCTTCTAGCTTCAAG (sugars k3 d10 k3, PS)
  target mRNA inhibition: 38%

## CCCTTCTATTGGTATT (sugars k3 d10 k3, PS)
  target mRNA inhibition: 7%

## CCGCAGGGATTTGAAC (sugars k3 d10 k3, PS)
  target mRNA inhibition: 2%

## CCGCTTGAGATTTGGG (sugars k3 d10 k3, PS)
  target mRNA inhibition: 28%

## CCGGAATTCGATCACC (sugars k3 d10 k3, PS)
  target mRNA inhibition: 9%

## CCGGAGCAGGAAGAAA (sugars k3 d10 k3, PS)
  target mRNA inhibition: 23%

## CCGTCCTGGAAACCAG (sugars k3 d10 k3, PS)
  target mRNA inhibition: 16%

## CCTACAACACCCGGAA (sugars k3 d10 k3, PS)
  target mRNA inhibition: 0%

## CCTACCGCACAGCTCG (sugars k3 d10 k3, PS)
  target mRNA inhibition: 3%

## CCTACTGAAGAGCATT (sugars k3 d10 k3, PS)
  target mRNA inhibition: 25%

## CCTACTTTAAGCCTTC (sugars k3 d10 k3, PS)
  target mRNA inhibition: 35%

## CCTATCTTCTCCAGTC (sugars k3 d10 k3, PS)
  target mRNA inhibition: -13%

## CCTCAATCCACTTGAT (sugars k3 d10 k3, PS)
  target mRNA inhibition: -2%

## CCTCACGGATTTTTAC (sugars k3 d10 k3, PS)
  target mRNA inhibition: -1%

## CCTCAGTTACACATCC (sugars k3 d10 k3, PS)
  target mRNA inhibition: 49%

## CCTCCTCCGTGTGGTT (sugars k3 d10 k3, PS)
  target mRNA inhibition: 32%

## CCTGATCTGGTCCATT (sugars k3 d10 k3, PS)
  target mRNA inhibition: 44%

## CCTGCTACCTTCATCA (sugars k3 d10 k3, PS)
  target mRNA inhibition: 22%

## CCTTAGTTGGCATCAA (sugars k3 d10 k3, PS)
  target mRNA inhibition: 82% and 63%

## CCTTCCGCCGCCTCTT (sugars k3 d10 k3, PS)
  target mRNA inhibition: 3%

## CCTTCGGATGCTTCAC (sugars k3 d10 k3, PS)
  target mRNA inhibition: 58% and 78%

## CCTTCGGTTTAATCTC (sugars k3 d10 k3, PS)
  target mRNA inhibition: 61% and 58%

## CCTTTATCACTCAGCT (sugars k3 d10 k3, PS)
  target mRNA inhibition: 54%

## CCTTTCATAGAGCCTT (sugars k3 d10 k3, PS)
  target mRNA inhibition: 69% and 90%

## CCTTTGTGAGGGAGGC (sugars k3 d10 k3, PS)
  target mRNA inhibition: -5%

## CGAGAAATCGGAGCAG (sugars k3 d10 k3, PS)
  target mRNA inhibition: 22%

## CGCAGACAAAGTTTCT (sugars k3 d10 k3, PS)
  target mRNA inhibition: 57%

## CGCAGGGATTTGAACC (sugars k3 d10 k3, PS)
  target mRNA inhibition: 15%

## CGCCATGGAAAGCGAG (sugars k3 d10 k3, PS)
  target mRNA inhibition: 20%

## CGCCGCCTCTTAAAGC (sugars k3 d10 k3, PS)
  target mRNA inhibition: 13%

## CGCTAAGATGCTAGCT (sugars k3 d10 k3, PS)
  target mRNA inhibition: -6%

## CGCTCCTTCCTGGAAT (sugars k3 d10 k3, PS)
  target mRNA inhibition: -19%

## CGGACTTTCTCCCCCA (sugars k3 d10 k3, PS)
  target mRNA inhibition: -9%

## CGGCCCCCCAGTTGCC (sugars k3 d10 k3, PS)
  target mRNA inhibition: 17%

## CGGTTAAAAATAGGTT (sugars k3 d10 k3, PS)
  target mRNA inhibition: 6%

## CGTCCCCATATAAATC (sugars k3 d10 k3, PS)
  target mRNA inhibition: 1%

## CGTCCTGGAAACCAGG (sugars k3 d10 k3, PS)
  target mRNA inhibition: 21%

## CGTTAAAAACTTAACG (sugars k3 d10 k3, PS)
  target mRNA inhibition: 13%

## CGTTACCTTGAAACCG (sugars k3 d10 k3, PS)
  target mRNA inhibition: 36%

## CTAAAAGCATTGCCCT (sugars k3 d10 k3, PS)
  target mRNA inhibition: 35%

## CTAAGAGACATTCAAG (sugars k3 d10 k3, PS)
  target mRNA inhibition: 27%

## CTACAACACCCGGAAA (sugars k3 d10 k3, PS)
  target mRNA inhibition: 33%

## CTACAAGTTACATGTT (sugars k3 d10 k3, PS)
  target mRNA inhibition: -9%

## CTACAGACAAACACTA (sugars k3 d10 k3, PS)
  target mRNA inhibition: 6%

## CTACTCTTCTAAGTCT (sugars k3 d10 k3, PS)
  target mRNA inhibition: 49%
